We go through seven compounds from PubChem BioAssay AID1259407 (Chemical Carcinogenesis Research Information System (CCRIS), 2018).

Active and inactive are the calls of the source. How the calls were made is not given here.

The subject of this series is CCRIS mutagenicity, Ames/micronucleus/aberration tests. Briefly: CCRIS mutagenicity studies.
Setting [1] is: Test System: AMES SALMONELLA TYPHIMURIUM, Strain/Indicator: TA98, Metabolic Activation: NONE, Method: STANDARD PLATE.
Where [2] appears, read: Test System: AMES SALMONELLA TYPHIMURIUM, Strain/Indicator: TA100, Metabolic Activation: NONE, Method: STANDARD PLATE.
Where [3] appears, read: Test System: AMES SALMONELLA TYPHIMURIUM, Strain/Indicator: TA98, Metabolic Activation: NONE, Method: PREINCUBATION
The mark [4] stands for this setting: Test System: AMES SALMONELLA TYPHIMURIUM, Strain/Indicator: TA100, Metabolic Activation: NONE, Method: PREINCUBATION

`Cc1cccc(Nc2cc(Cl)nc(SCC(=O)O)n2)c1C`: the mutagenic call is, setting by setting: (Test System: AMES SALMONELLA TYPHIMURIUM, Strain/Indicator: TA98, Metabolic Activation: NONE) “inactive; negative”; (Test System: AMES SALMONELLA TYPHIMURIUM, Strain/Indicator: TA98, Metabolic Activation: RAT, LIVER, S-9, AROCLOR 1254) “inactive; negative”; (Test System: AMES SALMONELLA TYPHIMURIUM, Strain/Indicator: TA102, Metabolic Activation: NONE) “inactive; negative”; (Test System: AMES SALMONELLA TYPHIMURIUM, Strain/Indicator: TA102, Metabolic Activation: RAT, LIVER, S-9, AROCLOR 1254) “inactive; negative”; (Test System: AMES SALMONELLA TYPHIMURIUM, Strain/Indicator: TA104, Metabolic Activation: NONE) “inactive; negative”; (Test System: AMES SALMONELLA TYPHIMURIUM, Strain/Indicator: TA104, Metabolic Activation: RAT, LIVER, S-9, AROCLOR 1254) “inactive; negative”. The mutagenic call (Test System: UDS RAT HEPATOCYTES, Strain/Indicator: BROMODEOXYURIDINE INCORP, Metabolic Activation: NONE) was “active; positive”; the mutagenic call (Test System: UDS RAT HEPATOCYTES, Strain/Indicator: BROMODEOXYURIDINE INCORP, Metabolic Activation: NONE, Method: FLOW CYTOMETRIC ANALYSIS) was “inactive; negative”; the mutagenic call (Test System: UDS RAT HEPATOCYTES, Strain/Indicator: THY INCORP, Metabolic Activation: NONE, Method: AUTORADIOGRAPHY) was “inactive; negative”; the mutagenic call (Test System: UDS RAT HEPATOCYTES, Strain/Indicator: THY INCORP, Metabolic Activation: NONE, Method: LIQUID SCINTILLATION COUNTING) is “active; positive”.
For `CC(C)CCC[C@@H](C)[C@H]1CC[C@H]2[C@@H]3CC=C4C[C@@H](O)CC[C@]4(C)[C@H]3CC[C@]12C`, under “Test System: CHINESE HAMSTER V-79, Strain/Indicator: V-79/OUABAIN, Metabolic Activation: NONE”, the mutagenic call is “inactive; negative”.
Regarding `Cc1cc(C)c(C)c(C)c1`, the mutagenic call is “active; positive” (Test System: AMES SALMONELLA TYPHIMURIUM, Strain/Indicator: TA97A, Metabolic Activation: NONE, Method: STANDARD PLATE); “inactive; negative” (Test System: AMES SALMONELLA TYPHIMURIUM, Strain/Indicator: TA97A, Metabolic Activation: RAT LIVER S-9, AROCLOR 1254, Method: STANDARD PLATE); “inactive; negative” under setting [1]; “inactive; negative” (Test System: AMES SALMONELLA TYPHIMURIUM, Strain/Indicator: TA98, Metabolic Activation: RAT LIVER S-9, AROCLOR 1254, Method: STANDARD PLATE); “inactive; negative” under setting [2]; “inactive; negative” (Test System: AMES SALMONELLA TYPHIMURIUM, Strain/Indicator: TA100, Metabolic Activation: RAT LIVER S-9, AROCLOR 1254, Method: STANDARD PLATE). The mutagenic call by setting is: (Test System: AMES SALMONELLA TYPHIMURIUM, Strain/Indicator: TA102, Metabolic Activation: NONE, Method: STANDARD PLATE) “inactive; negative”; (Test System: AMES SALMONELLA TYPHIMURIUM, Strain/Indicator: TA102, Metabolic Activation: RAT LIVER S-9, AROCLOR 1254, Method: STANDARD PLATE) “inactive; negative”.
In the case of `O=c1oc2ccc([N+](=O)[O-])c3ccc4cccc1c4c23`, the mutagenic call was “active; positive” (Test System: AMES SALMONELLA TYPHIMURIUM, Strain/Indicator: TA98(1,8-DNP6), Metabolic Activation: NONE, Method: PREINCUBATION); “inactive; negative” (Test System: AMES SALMONELLA TYPHIMURIUM, Strain/Indicator: TA98(1,8-DNP6), Metabolic Activation: RAT, LIVER, S-9, AROCLOR 1254, Method: PREINCUBATION); “active; positive” (Test System: AMES SALMONELLA TYPHIMURIUM, Strain/Indicator: TA98(NR), Metabolic Activation: NONE, Method: PREINCUBATION); “active; positive” (Test System: AMES SALMONELLA TYPHIMURIUM, Strain/Indicator: TA98(NR), Metabolic Activation: RAT, LIVER, S-9, AROCLOR 1254, Method: PREINCUBATION); “active; positive” under setting [3]; “active; positive” (Test System: AMES SALMONELLA TYPHIMURIUM, Strain/Indicator: TA98, Metabolic Activation: RAT, LIVER, S-9, AROCLOR 1254, Method: PREINCUBATION). The mutagenic call under setting [4] was “active; positive” and the mutagenic call (Test System: AMES SALMONELLA TYPHIMURIUM, Strain/Indicator: TA100, Metabolic Activation: RAT, LIVER, S-9, AROCLOR 1254, Method: PREINCUBATION) is “active; positive”.
In the case of `NCCCN1CCN(CCCN)CC1`, the mutagenic call under setting [3] is “inactive; negative”; the mutagenic call (Test System: AMES SALMONELLA TYPHIMURIUM, Strain/Indicator: TA98, Metabolic Activation: RAT LIVER S-9, PHENOBARBITAL AND BETA-NAPHTHOFLAVONE, Method: PREINCUBATION) is “inactive; negative”; the mutagenic call under setting [4] is “inactive; negative”; the mutagenic call (Test System: AMES SALMONELLA TYPHIMURIUM, Strain/Indicator: TA100, Metabolic Activation: RAT LIVER S-9, PHENOBARBITAL AND BETA-NAPHTHOFLAVONE, Method: PREINCUBATION) was “inactive; negative”; the mutagenic call (Test System: AMES SALMONELLA TYPHIMURIUM, Strain/Indicator: TA102, Metabolic Activation: NONE, Method: PREINCUBATION) was “inactive; negative”; the mutagenic call (Test System: AMES SALMONELLA TYPHIMURIUM, Strain/Indicator: TA102, Metabolic Activation: RAT LIVER S-9, PHENOBARBITAL AND BETA-NAPHTHOFLAVONE, Method: PREINCUBATION) is “inactive; negative”. In addition, the mutagenic call runs as follows: (Test System: AMES SALMONELLA TYPHIMURIUM, Strain/Indicator: TA104, Metabolic Activation: NONE, Method: PREINCUBATION) “inactive; negative”; (Test System: AMES SALMONELLA TYPHIMURIUM, Strain/Indicator: TA104, Metabolic Activation: RAT LIVER S-9, PHENOBARBITAL AND BETA-NAPHTHOFLAVONE, Method: PREINCUBATION) “inactive; negative”; (Test System: AMES SALMONELLA TYPHIMURIUM, Strain/Indicator: TA1535, Metabolic Activation: NONE, Method: PREINCUBATION) “inactive; negative”; (Test System: AMES SALMONELLA TYPHIMURIUM, Strain/Indicator: TA1535, Metabolic Activation: RAT LIVER S-9, PHENOBARBITAL AND BETA-NAPHTHOFLAVONE, Method: PREINCUBATION) “inactive; negative”; (Test System: AMES SALMONELLA TYPHIMURIUM, Strain/Indicator: TA1537, Metabolic Activation: NONE, Method: PREINCUBATION) “inactive; negative”; (Test System: AMES SALMONELLA TYPHIMURIUM, Strain/Indicator: TA1537, Metabolic Activation: RAT LIVER S-9, PHENOBARBITAL AND BETA-NAPHTHOFLAVONE, Method: PREINCUBATION) “inactive; negative”. In addition, the mutagenic call runs as follows: (Test System: E.COLI, Strain/Indicator: WP2UVRA/PKM101, Metabolic Activation: NONE, Method: PREINCUBATION) “inactive; negative”; (Test System: E.COLI, Strain/Indicator: WP2UVRA/PKM101, Metabolic Activation: RAT LIVER S-9, PHENOBARBITAL AND BETA-NAPHTHOFLAVONE, Method: PREINCUBATION) “inactive; negative”; (Test System: E.COLI, Strain/Indicator: WP2UVRA, Metabolic Activation: NONE, Method: PREINCUBATION) “inactive; negative”; (Test System: E.COLI, Strain/Indicator: WP2UVRA, Metabolic Activation: RAT LIVER S-9, PHENOBARBITAL AND BETA-NAPHTHOFLAVONE, Method: PREINCUBATION) “inactive; negative”.
For the compound `CC\C=C/C=C\C=C/C=C\C=C/OCC(O)CO` (centres undefined), the mutagenic call reads like this: under setting [1], “active; positive”; under setting [2], “active; positive”; (Test System: AMES SALMONELLA TYPHIMURIUM, Strain/Indicator: TA104, Metabolic Activation: NONE, Method: STANDARD PLATE) “active; positive”.
On to `CN(C)c1ccc(-c2ccc(N(C)C)cc2)cc1`, for which the mutagenic call is, setting by setting: under setting [3], “inactive; negative”; under setting [1], “inactive; negative”; (Test System: AMES SALMONELLA TYPHIMURIUM, Strain/Indicator: TA98, Metabolic Activation: RAT LIVER S-9, AROCLOR 1254, Method: PREINCUBATION) “active; positive”; (Test System: AMES SALMONELLA TYPHIMURIUM, Strain/Indicator: TA98, Metabolic Activation: RAT, LIVER, S-9, AROCLOR 1254, Method: STANDARD PLATE) “active; positive”; under setting [4], “inactive; negative”; under setting [2], “inactive; negative”. In addition, the mutagenic call runs as follows: (Test System: AMES SALMONELLA TYPHIMURIUM, Strain/Indicator: TA100, Metabolic Activation: RAT LIVER S-9, AROCLOR 1254, Method: PREINCUBATION) “inactive; negative”; (Test System: AMES SALMONELLA TYPHIMURIUM, Strain/Indicator: TA100, Metabolic Activation: RAT, LIVER, S-9, AROCLOR 1254, Method: STANDARD PLATE) “inactive; negative”.
